These results are taken from BindingDB's records for patent US10934302 (Relay Therapeutics, 2021).

The test addresses T1, Tyrosine-protein phosphatase non-receptor type 11 (Homo sapiens, UniProt Q06124).
T1 sequence (Q06124 whole entry): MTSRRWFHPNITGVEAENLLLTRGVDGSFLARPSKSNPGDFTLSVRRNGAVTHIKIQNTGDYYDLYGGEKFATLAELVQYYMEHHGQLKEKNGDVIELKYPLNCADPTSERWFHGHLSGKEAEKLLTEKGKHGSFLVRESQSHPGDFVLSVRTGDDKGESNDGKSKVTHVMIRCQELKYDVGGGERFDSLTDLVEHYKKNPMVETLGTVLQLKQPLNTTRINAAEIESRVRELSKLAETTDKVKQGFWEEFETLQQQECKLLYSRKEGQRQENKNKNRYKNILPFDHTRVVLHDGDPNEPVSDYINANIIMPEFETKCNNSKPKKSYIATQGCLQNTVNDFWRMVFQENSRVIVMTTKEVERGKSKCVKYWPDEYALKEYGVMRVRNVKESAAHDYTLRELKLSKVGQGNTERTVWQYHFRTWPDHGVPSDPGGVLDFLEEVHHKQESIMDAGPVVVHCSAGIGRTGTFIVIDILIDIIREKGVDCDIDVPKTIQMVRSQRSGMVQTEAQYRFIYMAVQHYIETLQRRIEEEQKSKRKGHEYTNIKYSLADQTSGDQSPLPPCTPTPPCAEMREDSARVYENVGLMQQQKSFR
Kind of test: Allosteric Inhibition Assay.
Usually IC50 stands for the concentration that inhibits the measured activity by half. Lower therefore signals inhibition by little substance. Consider `N[C@@H]1c2ccccc2CC12CCN(c1cnc(/C(=N/O)c3ccccc3)cn1)CC2` [US10934302, Example 257], for which the IC50 is less than 50 nM.
Consider `Cc1cc(C(=O)N2CCC3(CC2)Cc2ccccc2[C@H]3N)nn1-c1ccc(F)cc1F` [US10934302, Example 289], for which the concentration for half-maximal inhibition (IC50) was less than 50 nM.
On to `N[C@@H]1c2ccccc2CC12CCN(c1cnc(SCC3CC3)cn1)CC2` [US10934302, Example 266], for which the concentration for half-maximal inhibition (IC50) is less than 50 nM.
